Assay results as given in ChEMBL document CHEMBL1201862, “PubChem BioAssay data set” (2004).
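All cell lines were grown in 96-well plates and treated with compound for 48 hours. Abbreviation: GI50, concentration required for 50% inhibition of growth.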 Activity calls are given as the source filed them. Cut-off read from the data, not from the text of the source: active = GI50 up to about 1.1 µM and inactive = higher.

Assays:
Experiment in all cases: inhibition of tumour cell growth, NCI panel, 48 h
[1] = system: HCT-15
[2] = system: MDA-MB-435
[3] = system: SF-539
[4] = system: SF-268
[5] = system: MOLT-4
[6] = system: NCI-H460
[7] = system: SK-MEL-2
[8] = system: SK-OV-3
[9] = system: KM12
[10] = system: 786-0
[11] = system: RPMI-8226
[12] = system: MCF7
[13] = system: A549
[14] = system: SK-MEL-5
[15] = system: U-251
[16] = system: K562
[17] = system: HOP-62
[18] = system: RXF 393
[19] = system: M14
[20] = system: Hs-578T

| Compound | GI50 [1] [µM] | GI50 [2] | GI50 [3] | GI50 [4] | GI50 [5] | GI50 [6] | GI50 [7] | GI50 [8] | GI50 [9] | GI50 [10] | GI50 [11] | GI50 [12] | GI50 [13] | GI50 [14] | GI50 [15] | GI50 [16] | GI50 [17] | GI50 [18] | GI50 [19] | GI50 [20] |
| --- | --- | --- | --- | --- | --- | --- | --- | --- | --- | --- | --- | --- | --- | --- | --- | --- | --- | --- | --- | --- |
| Cc1nc(Cl)c(C)c(Cl)n1 | > 63.4 | 33.3 µM (inactive) | > 100 µM (inactive) | > 100 µM (inactive) | 6.17 µM (inactive) | > 100 µM (inactive) | > 100 µM (inactive) | > 100 µM (inactive) | > 59.6 µM (inactive) | > 100 µM (inactive) | > 100 µM (inactive) | > 84.5 µM (inactive) | > 100 µM (inactive) | > 59 µM (inactive) | > 100 µM (inactive) | 18.3 µM (inactive) | > 77.4 µM (inactive) | > 100 µM (inactive) | 37.7 µM (inactive) | > 75.2 µM (inactive) |
| Cc1cc(N(CCOS(C)(=O)=O)CCOS(C)(=O)=O)ccc1/C=N/c1ccc(-c2csc(-c3ccc(Br)cc3)n2)cc1 | 15.2 | 17.2 µM (inactive) | 1.17 µM (inactive) | 9.95 µM (inactive) | 2.38 µM (inactive) | 0.0483 µM (active) | 24.7 µM (inactive) | 1.98 µM (inactive) | 13.3 µM (inactive) | 1.84 µM (inactive) | 16 µM (inactive) | 1.02 µM (active) | 2.65 µM (inactive) | 14.2 µM (inactive) | 15.2 µM (inactive) | 12.2 µM (inactive) | 4.58 µM (inactive) | 1.78 µM (inactive) | 9.08 µM (inactive) | 35.6 µM (inactive) |
| COc1cc(OC)c(/C=C\c2cc(/C=C/c3c(OC)cc(OC)cc3OC)c3ccccc3[n+]2C)c(OC)c1 | 0.719 | 2.48 µM (inactive) | 2.22 µM (inactive) | 2.52 µM (inactive) | 1.98 µM (inactive) | 2.21 µM (inactive) | 1.74 µM (inactive) | 4.69 µM (inactive) | 2.98 µM (inactive) | 2.2 µM (inactive) | 2 µM (inactive) | 2.86 µM (inactive) | 3.94 µM (inactive) | 1.31 µM (inactive) | 1.28 µM (inactive) | 1.64 µM (inactive) | 1.07 µM (active) | 3.41 µM (inactive) | 2.56 µM (inactive) | 0.863 µM (active) |
| CCOC(=O)CC(N1CC1)N1CC1 | > 10 | > 10 µM (inactive) | > 10 µM (inactive) | > 10 µM (inactive) | > 10 µM (inactive) | > 10 µM (inactive) | > 10 µM (inactive) | > 10 µM (inactive) | > 10 µM (inactive) | > 10 µM (inactive) | > 10 µM (inactive) | > 10 µM (inactive) | > 10 µM (inactive) | > 10 µM (inactive) | > 10 µM (inactive) | > 10 µM (inactive) | > 10 µM (inactive) | > 10 µM (inactive) | > 10 µM (inactive) | > 10 µM (inactive) |
| O=C1O/C(=C\c2ccc(O)c(Br)c2)C(c2ccc(O)c(Cl)c2)=C1Br | 12.7 | 16 µM (inactive) | 18.6 µM (inactive) | 14.3 µM (inactive) | 16.6 µM (inactive) | 17.1 µM (inactive) | 19.1 µM (inactive) | 18 µM (inactive) | 15 µM (inactive) | 16.3 µM (inactive) | 13.2 µM (inactive) | 16.7 µM (inactive) | 18.4 µM (inactive) | 14.8 µM (inactive) | 13.5 µM (inactive) | 17.3 µM (inactive) | 19.9 µM (inactive) | 17.2 µM (inactive) | 17.8 µM (inactive) | 15.7 µM (inactive) |
| O=C(Nc1ccccc1C(=O)NCCCO)/C(=C/c1ccccc1O)NC(=O)c1ccccc1 | > 78.2 | > 50.5 µM (inactive) | 30.8 µM (inactive) | 35.6 µM (inactive) | > 100 µM (inactive) | > 72.1 µM (inactive) | 44.3 µM (inactive) | 51.5 µM (inactive) | 18.4 µM (inactive) | 34 µM (inactive) | > 100 µM (inactive) | 5.36 µM (inactive) | > 100 µM (inactive) | > 100 µM (inactive) | 30 µM (inactive) | > 100 µM (inactive) | 20.5 µM (inactive) | 28.1 µM (inactive) | 55.6 µM (inactive) | 26.2 µM (inactive) |
| O=C(CCc1ccccc1)n1cccc1CO | > 100 | > 100 µM (inactive) | > 100 µM (inactive) | > 100 µM (inactive) | > 100 µM (inactive) | > 100 µM (inactive) | > 100 µM (inactive) | > 100 µM (inactive) | > 100 µM (inactive) | > 100 µM (inactive) | > 100 µM (inactive) | > 100 µM (inactive) | > 100 µM (inactive) | > 100 µM (inactive) | > 100 µM (inactive) | > 100 µM (inactive) | > 100 µM (inactive) | 93.3 µM (inactive) | > 100 µM (inactive) | 60.3 µM (inactive) |
| Fc1nc(Sc2ncnc3nc[nH]c23)nc(-c2c3ccccc3c3sc4ccccc4n23)n1 | > 100 | > 100 µM (inactive) | > 100 µM (inactive) | 36.3 µM (inactive) | 77.8 µM (inactive) | > 100 µM (inactive) | > 100 µM (inactive) | > 100 µM (inactive) | > 100 µM (inactive) | > 100 µM (inactive) | > 100 µM (inactive) | > 100 µM (inactive) | > 100 µM (inactive) | > 100 µM (inactive) | > 100 µM (inactive) | > 100 µM (inactive) | > 100 µM (inactive) | > 100 µM (inactive) | 43.3 µM (inactive) | > 100 µM (inactive) |
| Cn1cnc2c(NCc3ccccc3)nc(NCCO)nc21 [OLOMOUCINE] | 41.3 | 78.7 µM (inactive) | 42.2 µM (inactive) | 49 µM (inactive) | 70.1 µM (inactive) | 104 µM (inactive) | 98.9 µM (inactive) | > 95.5 µM (inactive) | 35 µM (inactive) | 60.7 µM (inactive) | 53.8 µM (inactive) | 39.7 µM (inactive) | 43.9 µM (inactive) | 40.6 µM (inactive) | 64.4 µM (inactive) | 107 µM (inactive) | 29.3 µM (inactive) | 67 µM (inactive) | 78.9 µM (inactive) | 69.5 µM (inactive) |
